# Reference: patent publication US20260002124A1, “ENHANCING NEURONAL DIFFERENTIATION OF VENTRAL MIDBRAIN NEURAL PROGENITOR CELLS” (Novo Nordisk A/S, priority 2022, published 2026)
# Values joined by “and” are separate entries in the source; they are usually repeats but may differ in a detail not shown here. Equal values may be shown once.
# How the values were obtained:
# Format in all cases: cell-based, human
# [1] = tested on: ventral midbrain floor plate NSCs; experiment: Immunofluorescence staining after late administration and extended differentiation (DIV40); conditions: late administration; IF staining, extended differentiation DIV40
# Protocol: (§1) Following compound administration and flow cytometry analysis performed in Figure, all groups were differentiated for a further 11 days in vitro and then were fixed in 4% paraformaldehyde and stained with DAPI to identify all cell nuclei and primary antibodies against SOX2 (1:300), Ki-67 (1:250), LMX1A (1:1000), tyrosine hydroxylase (TH; 1:500) and COL1A1 (1:300) followed by fluorescently labelled secondary antibodies. Images were acquired on an Olympus IX81 microscope using CellSens software. The immunofluorescence (IF) staining confirmed the flow cytometry results with extended differentiation showing that treatment with a NOTCHi alone reduced, compared to untreated controls, the amount of NSCs identified by SOX2 (FIG. 12A-D) and proliferative cells identified by KI67 (FIG. 13B,D) while maintaining the amount of neuronal cells identified by INA (FIG. 13A,C).
# (§2) Cells were fixed in 4% paraformaldehyde (Alfa Aesar) for 10 minutes at room temperature. Unspecific antibody binding was blocked by incubating cells with PADT buffer; phosphate-buffered saline (PBS) without Ca2+ and Mg2+ (Gibco) with 0.02% sodium azide solution (Ampliqon), 0.5% Triton X-100 (Sigma), and 5% Donkey serum (Jackson Labs) for 30 minutes, followed by overnight incubation with primary antibodies (see Table X) at 4° C. The cells were washed 3 times with PBS without Ca2+ and Mg2+, blocked with PADT buffer for 15 minutes, and incubated with fluorophore-conjugated secondary antibodies (see Table X) for 2 hours at room temperature, protected from light. The cells were then counterstained with DAPI (10 μg/mL) for 5 minutes at room temperature, washed 3 times with PBS without Ca2+ and Mg2+, and stored at 4° C. in PBS without Ca2+ and Mg2+ supplemented with 0.02% sodium azide. Images were captured with a Zeiss Axio Observer microscope equipped with an Axiocam 512 camera and ZEN 3.2 (Pro) software (Zeiss).
# [2] = tested on: ventral midbrain floor plate NSCs; experiment: Early in vitro administration of MEKi and/or NOTCHi (DIV16-22), flow cytometry marker expression
# Protocol: (§3) hESCs were differentiated to ventral midbrain neurons according to an established protocol (Nolbrant et al., 2017; Kirkeby et al., 2017). In brief, hESC were grown to 70-90% confluency, then disassociated with 0.5 mM EDTA. The cells were seeded at 10^4 cells/cm^2 in cell culture flasks or plates coated with human laminin-111 (1.2 μg/cm^2; BioLamina) and immediately put into contact with differentiation media. The cells were exposed to N2-based media from days in vitro (DIV) 0-8; 50% DMEM/F12+Glutamax (Gibco), 50% Neurobasal (Gibco), 1% N2 supplement CTS (Thermo Fisher Scientific), 5% GlutaMAX (Thermo Fisher Scientific), 0.2% P-S (Thermo Fisher Scientific) and supplemented with SMAD inhibitors SB431542 (10 μM; Miltenyi Biotec), Noggin (100 ng/mL; Miltenyi Biotec) for neural induction, Sonic Hedgehog C24II (SHH; 500 ng/mL; Miltenyi Biotec) for ventral fate, GSK3B inhibitor CHIR99021 (CHIR; 0.5-0.6 μM; Miltenyi Biotec) to promote caudalization. N2-based media was supplemented with fibroblast growth factor 8b (FGF8b; 100 ng/mL; Miltenyi Biotec) from DIV9-11. At DIV11, the cells were dissociated with accutase (Thermo Fisher Scientific) and seeded at 0.8×10^6 cells/[…] in a cell culture flask or plate coated with human laminin-111 (1.2 μg/cm^2) in DIV11-16 media (Neurobasal, 2% B27 supplement without vitamin A CTS (Thermo Fisher Scientific), 5% GlutaMAX, 0.2% P-S and supplemented with FGF8b (100 ng/mL), L-ascorbic acid (AA; 200 μM; Sigma), human Brain Derived Neurotrophic Factor (BDNF; 20 ng/mL; Miltenyi Biotec)) supplemented with Y-27632 (Miltenyi Biotec) at 10 μM. At day in vitro (DIV) 16, the cells were dissociated with accutase and either cryopreserved, or re-seeded in cell culture flasks/plates coated with poly-L-ornithine (0.002%) and Laminin-521 (1.5 μg/cm^2) in B27 media supplemented with BDNF (20 ng/mL), GDNF (20 ng/mL), L-ascorbic acid (200 μM), dcAMP (500 μM), DAPT (10 μM), and Y-27632 (10 μM) for extended in vitro culture allowing further differentiation and maturation of ventral midbrain neural stem cells into neurons.
# (§4) Ventral midbrain dopaminergic (vmDA) progenitor cells were generated from hESCs in 2D in vitro culture as described in Example 1 and using reagents described in Table 1. At various days after initiating the differentiation the cell culture was dissociated into a single cell suspension using Accutase, counted on a NucleoCounter NC-200 and collected in N2 media (CTS™ Neurobasal™ medium supplemented with 1% CTS™ N-2 supplement). Dead cells were labelled using a LIVE/DEAD™ Fixable Near-IR Dead Cell Stain Kit. The cells were then resuspended in B27 media (CTS™ Neurobasal™ medium supplemented with 1% B-27™ supplement without vitamin A, 2 mM GSutaMAX™, 60 U/mL Penicillin-Streptomycin, 10 μM ROCK inhibitor). Cells were then fixed and permeabilized using the BD Transcription Factor Buffer Set (BD Biosciences) according to the manufacturer's instructions. The fixed cells were then stained with fluorescently conjugated antibodies, and the samples acquired on a BD LSR Fortessa or B FACSymphony (BD Biosciences). The fcs files were exported and analyzed in FlowJo 10.5.03.
# (§5) To determine whether a cell was considered positive in its protein expression of a marker, gates were set as routinely done in the field at the edge of the fluorescent signal of a negative control sample. Examples of negative control samples used included unstained controls, fluorescence minus one (FMO) controls and most preferably biological negative control samples; all cells present above these threshold gates when experimental samples were run were considered positive. Antibodies: FOXA2 (1:320, Miltenyi), OTX2 (1:320, Miltenyi), SOX2 (1:40, B), LMXTA (1:2500, Novo Nordisk production), […] (1:40, AtlasAntibodies), ASCL1 (1:2500, Mitlenyi), INA (1:3000, AtlasAntibodies). […]
# [3] = tested on: ventral midbrain floor plate NSCs; experiment: Immunofluorescence staining after early administration and extended differentiation (DIV35); conditions: early administration; IF staining, extended differentiation DIV35
# Protocol: as §1, with “FIGS. 2 and 3,” for “Figure,”, “(1:3000), INA (1:200),” for “(1:1000),”, “results of FIG. 3” for “results”, “4A-D)” for “12A-D)”, “5B,D)” for “13B,D)”, “5A,C).” for “13A,C).”
# as §2
# VM NPCs = experiment: FCM profile of VM neural cells at DIV22 after earlier NOTCHi treatment DIV16-22
# Protocol: as §3, §4, §5
# [4] = tested on: ventral midbrain floor plate NSCs; experiment: Late in vitro administration of MEKi and/or NOTCHi (DIV22-29), FCM/ICC marker expression
# Protocol: as §3, §4, §5
# [5] = early treatment DIV16-22, % of total viable cells, replicates #1-#4
# [6] = early treatment, result in words
# [7] = DIV22 after NOTCHi (DAPT) DIV16-22 every 48-72 hrs, flow cytometry, replicates #1-#11
# [8] = DIV22 after NOTCHi DIV16-22, Mean of #1-#11
# [9] = late administration DIV22-29, FCM/ICC, % of total cells, replicates #1-#4
# [10] = late administration, result in words
smiles,measurement,setting,value
C[C@H](NC(=O)Cc1cc(F)cc(F)c1)C(=O)NC(C(=O)OC(C)(C)C)c1ccccc1 (stereo partly shown) [NOTCHi],amount of NSCs identified by SOX2 compared to untreated controls,[1],reduced
same,amount of neuronal cells identified by INA,[1],maintaining
same,expression of ventral midbrain lineage marker LMX1A,[1],did not prevent
same,formation of dopamine neurons (TH),[1],did not prevent
same,proliferative cells identified by KI67 compared to untreated controls,[1],reduced
same,proportion of stromal COL1A1 cells compared to control untreated cultures,[1],dramatically reduced
same,FOXA2 expressing cells,[2]; [5],85.3% and 72.4% and 93.2%
same,Ki67 expressing cells (proliferative marker),[2]; [5],16.6% and 18.6% and 17.7%
same,LMX1A expressing cells,[2]; [5],88.4% and 77.2% and 94.5%
same,SOX2 expressing cells (NSC marker),[2]; [5],59.6% and 57.3% and 65.7%
same,expression of NSC marker SOX2 compared to controls,[2]; [6],downregulated
same,expression of proliferative marker KI67 compared to controls,[2]; [6],downregulated
same,amount of NSCs identified by SOX2 compared to untreated controls,[3],reduced
same,amount of neuronal cells identified by INA,[3],maintaining
same,expression of ventral midbrain lineage marker LMX1A,[3],did not prevent
same,formation of dopamine neurons (TH),[3],did not prevent
same,proliferative cells identified by KI67 compared to untreated controls,[3],reduced
same,proportion of stromal COL1A1 cells compared to control untreated cultures,[3],dramatically reduced
same,ASCL1 expressing cells,VM NPCs; [7],41.1% and 41.7% and 45.8% and 16.2% and 17.3% and 25.6% and 50.4% and 57.1% and 40.5% and 51.8% and 36.0%
same,FOXA2 expressing cells,VM NPCs; [7],69.7% and 76.2% and 82.7% and 78.0% and 75.5% and 35.2% and 85.4% and 98.2% and 82.1% and 94.9% and 67.6%
same,INA expressing cells,VM NPCs; [7],30.5% and 19.2% and 22.4% and 13.8% and 13.3% and 32.0% and 23.6% and 34.2% and 19% and 45.6% and 18.3%
same,INA+/SOX2− cells,VM NPCs; [7],13.8% and 4.7% and 6.2% and 2.6% and 5.0% and 6.0% and 7.3% and 13.6% and 5.7% and 20.1% and 7.0%
same,Ki67 expressing cells,VM NPCs; [7],6.4% and 8.1% and 9.7% and 7.8% and 5.2% and 19.8% and 5.9% and 4.8% and 6.0% and 6.6% and 6.1%
same,SOX2 expressing cells,VM NPCs; [7],70.9% and 86.3% and 88.3% and 77.2% and 78.5% and 76.4% and 72% and 70.5% and 64.7% and 65.7% and 69.5%
same,"ASCL1 expressing cells, Mean",VM NPCs; [8],38.5%
same,"FOXA2 expressing cells, Mean",VM NPCs; [8],76.9%
same,"INA expressing cells, Mean",VM NPCs; [8],24.7%
same,"INA+/SOX2− cells, Mean",VM NPCs; [8],8.4%
same,"Ki67 expressing cells, Mean",VM NPCs; [8],7.9%
same,"SOX2 expressing cells, Mean",VM NPCs; [8],74.5%
same,FOXA2 expressing cells,[4]; [9],81.8% and 90.2% and 68% and 92.2%
same,INA expressing cells (neuronal marker),[4]; [9],35.4% and 61.5% and 74.1%
same,Ki67 expressing cells (proliferative marker),[4]; [9],21.3% and 1.65% and 3.87% and 2.98%
same,LMX1A expressing cells,[4]; [9],95.4% and 75.4% and 91.8%
same,SOX2 expressing cells (NSC marker),[4]; [9],62.1% and 21.9% and 63.7% and 43.6%
same,expression of NSC marker SOX2 compared to controls,[4]; [10],downregulated
same,expression of proliferative marker KI67 compared to controls,[4]; [10],downregulated
